Where “and” joins values, the source holds several entries; their conditions need not be identical. Equal entries are not always repeated.
How the values were obtained:
HDAC6 = target: T1, HDAC6 (Homo sapiens, UniProt Q9UBN7); experiment: HDAC6 enzymatic inhibition assay; assay type: biochemical
T1 sequence (Q9UBN7 1-1215): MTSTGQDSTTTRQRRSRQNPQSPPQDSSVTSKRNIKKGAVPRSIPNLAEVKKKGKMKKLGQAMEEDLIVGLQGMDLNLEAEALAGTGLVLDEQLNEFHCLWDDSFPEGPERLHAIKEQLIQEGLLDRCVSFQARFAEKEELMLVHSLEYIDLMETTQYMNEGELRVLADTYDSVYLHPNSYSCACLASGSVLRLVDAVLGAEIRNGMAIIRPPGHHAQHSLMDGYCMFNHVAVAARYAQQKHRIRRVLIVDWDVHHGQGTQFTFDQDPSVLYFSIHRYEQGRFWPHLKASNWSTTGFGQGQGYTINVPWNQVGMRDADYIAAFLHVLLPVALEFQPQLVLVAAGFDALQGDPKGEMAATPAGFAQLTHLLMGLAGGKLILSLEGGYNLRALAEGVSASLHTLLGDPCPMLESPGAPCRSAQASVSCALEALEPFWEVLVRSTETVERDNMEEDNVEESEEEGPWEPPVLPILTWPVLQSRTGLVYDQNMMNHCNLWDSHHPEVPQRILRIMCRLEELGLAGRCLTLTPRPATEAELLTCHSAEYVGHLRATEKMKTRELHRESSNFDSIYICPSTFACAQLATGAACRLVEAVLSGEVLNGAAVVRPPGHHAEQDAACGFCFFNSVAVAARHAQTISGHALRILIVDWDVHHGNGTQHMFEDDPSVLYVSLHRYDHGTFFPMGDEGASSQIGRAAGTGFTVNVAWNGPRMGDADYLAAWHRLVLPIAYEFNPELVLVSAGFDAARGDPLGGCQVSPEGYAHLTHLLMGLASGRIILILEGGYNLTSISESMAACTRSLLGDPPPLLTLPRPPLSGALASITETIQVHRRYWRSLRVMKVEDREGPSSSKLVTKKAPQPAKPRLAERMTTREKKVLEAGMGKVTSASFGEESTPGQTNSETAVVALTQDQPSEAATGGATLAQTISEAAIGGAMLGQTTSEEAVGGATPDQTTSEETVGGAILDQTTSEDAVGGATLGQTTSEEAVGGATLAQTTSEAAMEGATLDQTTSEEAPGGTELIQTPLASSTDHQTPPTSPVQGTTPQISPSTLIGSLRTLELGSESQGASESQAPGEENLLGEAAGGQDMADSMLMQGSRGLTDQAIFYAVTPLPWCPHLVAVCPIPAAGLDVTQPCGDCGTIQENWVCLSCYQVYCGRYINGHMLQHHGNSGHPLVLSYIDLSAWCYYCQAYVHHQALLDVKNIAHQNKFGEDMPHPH

[1] = tested on: acetylated histone 3 in N2a cells; experiment: Acetylated histone 3/histone 4 ratio in N2a cells by Western blot; assay type: cell-based, mouse; settings: overnight, vehicle = 1.00
mutant HSPB1 DRG neurons = experiment: Mitochondrial axonal transport in mutant HSPB1 DRG neurons; assay type: cell-based, mouse; settings: DRG neurons from transgenic mutant HSPB1 mice, 100 nM overnight
HDAC2 = HDAC2 (Homo sapiens, UniProt Q92769); experiment: HDAC2 enzymatic inhibition assay
HDAC3 = HDAC3 (Homo sapiens, UniProt O15379); experiment: HDAC3 enzymatic inhibition assay
HDAC5 = HDAC5 (Homo sapiens, UniProt Q9UQL6); experiment: HDAC5 enzymatic inhibition assay
HDAC9 = HDAC9 (Homo sapiens, UniProt Q9UKV0); experiment: HDAC9 enzymatic inhibition assay
HDAC11 = target: T2, HDAC11 (Homo sapiens, UniProt Q96DB2); experiment: HDAC11 enzymatic inhibition assay
T2 sequence (Q96DB2 1-347): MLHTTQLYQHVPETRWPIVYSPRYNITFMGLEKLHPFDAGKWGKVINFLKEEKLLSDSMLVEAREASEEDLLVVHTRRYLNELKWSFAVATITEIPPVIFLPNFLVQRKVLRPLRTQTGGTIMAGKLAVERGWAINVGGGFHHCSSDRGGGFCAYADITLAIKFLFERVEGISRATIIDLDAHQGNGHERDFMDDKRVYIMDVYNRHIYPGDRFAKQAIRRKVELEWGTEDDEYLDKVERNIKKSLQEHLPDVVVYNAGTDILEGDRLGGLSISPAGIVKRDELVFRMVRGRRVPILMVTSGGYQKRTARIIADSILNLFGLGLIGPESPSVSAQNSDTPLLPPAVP

Chain of HDAC5 (Q9UQL6 whole entry): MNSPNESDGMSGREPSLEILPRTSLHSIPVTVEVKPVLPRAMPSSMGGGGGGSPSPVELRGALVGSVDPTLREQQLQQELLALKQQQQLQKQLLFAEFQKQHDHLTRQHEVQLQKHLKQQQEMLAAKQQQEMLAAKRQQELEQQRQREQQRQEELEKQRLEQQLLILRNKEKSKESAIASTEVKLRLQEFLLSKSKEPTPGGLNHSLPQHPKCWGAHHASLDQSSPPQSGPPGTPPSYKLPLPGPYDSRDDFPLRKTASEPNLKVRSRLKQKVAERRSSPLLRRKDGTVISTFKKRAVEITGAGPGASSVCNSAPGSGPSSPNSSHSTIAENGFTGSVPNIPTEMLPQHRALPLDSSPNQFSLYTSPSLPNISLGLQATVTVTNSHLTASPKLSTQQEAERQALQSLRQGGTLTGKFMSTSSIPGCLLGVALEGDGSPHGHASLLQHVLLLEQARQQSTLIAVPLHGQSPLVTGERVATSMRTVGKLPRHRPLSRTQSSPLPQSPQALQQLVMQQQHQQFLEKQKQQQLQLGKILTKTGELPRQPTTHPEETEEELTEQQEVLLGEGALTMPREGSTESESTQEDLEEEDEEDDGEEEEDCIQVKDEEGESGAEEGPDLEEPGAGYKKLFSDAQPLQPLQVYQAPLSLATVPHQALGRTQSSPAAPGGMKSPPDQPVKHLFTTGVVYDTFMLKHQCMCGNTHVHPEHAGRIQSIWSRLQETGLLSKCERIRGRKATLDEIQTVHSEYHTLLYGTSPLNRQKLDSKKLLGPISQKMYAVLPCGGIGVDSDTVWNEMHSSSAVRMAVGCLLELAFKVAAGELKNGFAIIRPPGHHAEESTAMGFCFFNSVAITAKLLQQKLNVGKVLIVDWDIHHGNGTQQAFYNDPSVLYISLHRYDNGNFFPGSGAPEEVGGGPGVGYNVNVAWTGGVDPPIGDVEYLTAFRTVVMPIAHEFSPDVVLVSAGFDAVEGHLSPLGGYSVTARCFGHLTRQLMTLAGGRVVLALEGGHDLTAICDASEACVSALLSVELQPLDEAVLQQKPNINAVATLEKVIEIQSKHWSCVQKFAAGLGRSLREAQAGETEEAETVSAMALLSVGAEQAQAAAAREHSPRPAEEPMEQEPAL
Chain of HDAC3 (O15379 whole entry): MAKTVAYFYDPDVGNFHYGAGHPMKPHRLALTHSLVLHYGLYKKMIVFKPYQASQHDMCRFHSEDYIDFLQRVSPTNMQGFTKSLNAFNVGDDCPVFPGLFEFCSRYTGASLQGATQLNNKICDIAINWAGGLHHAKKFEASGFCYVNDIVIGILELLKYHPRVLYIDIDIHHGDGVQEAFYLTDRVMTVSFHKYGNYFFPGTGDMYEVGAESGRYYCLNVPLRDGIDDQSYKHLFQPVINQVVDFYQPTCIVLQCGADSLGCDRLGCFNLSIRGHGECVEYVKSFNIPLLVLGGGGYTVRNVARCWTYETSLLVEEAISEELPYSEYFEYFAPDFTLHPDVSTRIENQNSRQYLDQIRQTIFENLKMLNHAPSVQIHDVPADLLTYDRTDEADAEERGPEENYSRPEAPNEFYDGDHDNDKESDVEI
Chain of HDAC3 (Q9Y618 395-489 partner limits assumed): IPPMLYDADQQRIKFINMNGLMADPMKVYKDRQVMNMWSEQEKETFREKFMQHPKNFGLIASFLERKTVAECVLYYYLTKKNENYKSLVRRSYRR
Chain of HDAC9 (Q9UKV0 whole entry): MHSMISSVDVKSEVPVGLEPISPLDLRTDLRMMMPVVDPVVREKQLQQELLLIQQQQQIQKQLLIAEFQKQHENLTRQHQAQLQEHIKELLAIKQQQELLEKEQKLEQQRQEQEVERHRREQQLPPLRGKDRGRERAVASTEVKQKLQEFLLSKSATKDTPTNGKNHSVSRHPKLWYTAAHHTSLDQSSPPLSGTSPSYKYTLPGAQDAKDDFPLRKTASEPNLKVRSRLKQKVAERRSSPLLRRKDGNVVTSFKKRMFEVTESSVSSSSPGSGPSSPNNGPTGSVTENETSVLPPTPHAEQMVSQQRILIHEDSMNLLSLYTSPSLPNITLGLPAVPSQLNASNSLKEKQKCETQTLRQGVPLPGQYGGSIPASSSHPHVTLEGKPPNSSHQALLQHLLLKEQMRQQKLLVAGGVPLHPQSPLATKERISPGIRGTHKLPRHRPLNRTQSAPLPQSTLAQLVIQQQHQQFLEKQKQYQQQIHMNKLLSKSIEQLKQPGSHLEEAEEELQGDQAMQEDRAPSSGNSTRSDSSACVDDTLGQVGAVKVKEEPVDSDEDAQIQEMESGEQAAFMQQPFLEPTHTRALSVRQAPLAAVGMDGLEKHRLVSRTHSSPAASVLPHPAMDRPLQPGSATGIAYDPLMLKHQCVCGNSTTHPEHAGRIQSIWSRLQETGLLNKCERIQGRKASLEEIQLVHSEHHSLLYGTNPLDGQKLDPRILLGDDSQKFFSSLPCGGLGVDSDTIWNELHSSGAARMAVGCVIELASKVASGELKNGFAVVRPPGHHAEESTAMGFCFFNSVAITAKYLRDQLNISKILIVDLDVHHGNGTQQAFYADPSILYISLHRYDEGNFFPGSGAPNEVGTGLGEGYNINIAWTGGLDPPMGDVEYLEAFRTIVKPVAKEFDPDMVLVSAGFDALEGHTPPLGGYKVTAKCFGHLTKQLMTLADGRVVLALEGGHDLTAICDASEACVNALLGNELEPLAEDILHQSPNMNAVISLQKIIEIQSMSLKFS
Chain of HDAC2 (Q92769 whole entry): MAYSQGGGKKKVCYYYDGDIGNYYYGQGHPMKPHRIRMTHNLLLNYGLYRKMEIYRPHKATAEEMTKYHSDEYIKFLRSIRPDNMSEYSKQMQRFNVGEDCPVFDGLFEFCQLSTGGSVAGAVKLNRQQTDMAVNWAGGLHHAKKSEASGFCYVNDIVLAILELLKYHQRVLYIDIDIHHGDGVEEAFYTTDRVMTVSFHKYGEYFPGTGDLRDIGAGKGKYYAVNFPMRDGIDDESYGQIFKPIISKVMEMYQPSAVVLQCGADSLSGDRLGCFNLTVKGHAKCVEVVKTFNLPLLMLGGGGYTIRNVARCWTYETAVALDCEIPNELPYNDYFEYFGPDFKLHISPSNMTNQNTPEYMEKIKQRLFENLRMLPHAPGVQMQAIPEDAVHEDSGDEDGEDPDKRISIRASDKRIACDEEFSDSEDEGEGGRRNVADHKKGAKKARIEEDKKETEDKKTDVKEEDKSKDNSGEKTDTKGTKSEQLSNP

- IC50 (HDAC6; HDAC6 IC50, singlet 10-dose IC50 mode, 3-fold serial dilution starting at 1 μM): 3.12 nM
- IC50 (HDAC6; IC50 (nM) HDAC6, mean of two experiments ± standard deviation, 10-point enzymatic assay starting from 30 μM, 3-fold serial dilution): 5 nM and 5.2 nM
- Selectivity HDAC1/HDAC6 (HDAC6; ratio of HDAC1 and HDAC6 IC50 of Table 1 (fold)): 562
- IC50 (HDAC2): 7430 nM
- IC50 (HDAC3): 10000 nM
- IC50 (HDAC5): 397 nM
- IC50 (HDAC9): 463 nM
- IC50 (HDAC11): 7490 nM
SMILES: Cc1nc2ccc(F)cc2n1Cc1ccc(C(=O)NO)cc1 [30a, 4-[(6-Fluoro-2-methyl-1-benzimidazolyl)methyl]-N-hydroxybenzamide]
- ratio acetylated H3/H4 (1 μM) mean [1]: did not alter the acetylation of histone 3
- mitochondrial axonal transport (number of moving mitochondria per 100 μm of neurite) (mutant HSPB1 DRG neurons): able to restore the movement of mitochondria
